Values quoted from earlier work, collected in patent US10332616B2, “Movable type method applied to protein-ligand binding” (University of Florida Research Foundation, Inc., priority 2013, dated 2019).

Conditions: aqueous solvation free energy, charged compounds (ions)

SMILES | Exp. ΔGsolv [kcal/mol]
CN [i003, methylamine, reference compound] | -76.40
CCCN [i004, n-propylamine, reference compound] | -71.50
C=CCN [i008, allylamine, reference compound] | -72.00
Cc1cccc(N)c1 [i020, 3-methylaniline, reference compound] | -69.60
Cc1ccc(N)cc1 [i021, 4-methylaniline, reference compound] | -69.80
Nc1cccc(N)c1 [i023, 3-aminoaniline, reference compound] | -65.80
N [i047, ammonia, reference compound] | -85.20
CC(=O)O [i059, aceticacid, reference compound] | -77.60
CCC(=O)O [i060, propanoicacid, reference compound] | -76.20
CCCCCC(=O)O [i061, hexanoicacid, reference compound] | -74.60
C=CC(=O)O [i062, acrylicacid, reference compound] | -74.00
CC(=O)C(=O)O [i063, pyruvicacid, reference compound] | -68.50
O=C(O)c1ccccc1 [i064, benzoicacid, reference compound] | -71.20
COc1ccc(N)cc1 [i093, 4-methoxyaniline, reference compound] | -71.20
O=C(O)C(F)(F)F [i118, trifluoroaceticacid, reference compound] | -59.30
O=C(O)CCl [i119, chloroaceticacid, reference compound] | -69.70
O=C(O)C(Cl)Cl [i120, dichloroaceticacid, reference compound] | -62.30
Nc1cccc(Cl)c1 [i125, 3-chloroaniline, reference compound] | -74.70

Same assay, conditions: experimental solvation free energy, neutral compounds test set

SMILES | Exp. ΔGsolv [kcal/mol]
Cc1ccccc1N [n009] | -5.56
Cc1ccc(N)cc1 [n011] | -5.55
CN(C)c1ccccc1 [n014] | -3.58
CC(=O)OCC(COC(C)=O)OC(C)=O [test0001] | -8.84
COc1ccc(C(=O)N(C)C)cc1 [test0005] | -11.01
Cc1ccc(C(=O)N(C)C)cc1 [test0006] | -9.76
ClCCOCCCl [test0007] | -4.23
CCOC(C)OCC [test0009] | -3.28
COCOC [test0012] | -2.93
CC(=O)OCCOC(C)=O [test0013] | -6.34
CCOCCOCC [test0014] | -3.54
CCc1cccc(CC)c1N(COC)C(=O)CCl [test1007] | -8.2
CNC(=O)O/N=C/C(C)(C)SC [test1008] | -9.8
COP(=S)(OC)SCn1nnc2ccccc2c1=O [test1010] | -10
CCCCN(CC)c1c([N+](=O)[O-])cc(C(F)(F)F)cc1[N+](=O)[O-] [test1011] | -3.5
COC(=O)c1ccccc1CS(=O)(=O)NC(=O)Nc1nc(OC)cc(OC)n1 [test1012] | -17.2
CCC(C)n1c(=O)[nH]c(C)c(Br)c1=O (stereo not shown) [test1013] | -9.7
O=C1C2CC=CCC2C(=O)N1SC(Cl)(Cl)Cl (stereo not shown) [test1014] | -9
CNC(=O)Oc1cccc2ccccc12 [test1015] | -9.5
CNC(=O)Oc1cccc2c1OC(C)(C)C2 [test1016] | -9.6

SMILES | Exp. ΔGsolv [kcal/mol]
CCOP(=O)(OCC)O/C(=C\Cl)c1ccc(Cl)cc1Cl [test1019] | -7.1
CCOC(=O)c1ccccc1S(=O)(=O)NC(=O)Nc1nc(Cl)cc(OC)n1 [test1020] | -14
CCOP(=S)(OCC)SC(CCl)N1C(=O)c2ccccc2C1=O (stereo not shown) [test1023] | -5.7
CCOP(=S)(OCC)Oc1cc(C)nc(C(C)C)n1 [test1024] | -6.5
COc1c(Cl)ccc(Cl)c1C(=O)O [test1025] | -9.9
CCN(CC)c1c([N+](=O)[O-])cc(C(F)(F)F)c(N)c1[N+](=O)[O-] [test1027] | -5.7
O=S1OC[C@@H]2[C@H](CO1)[C@@]1(Cl)C(Cl)=C(Cl)[C@]2(Cl)C1(Cl)Cl (stereo partly shown) [test1029] | -4.2
ClC1=C(Cl)C2(Cl)C3C4CC(C5OC45)C3C1(Cl)C2(Cl)Cl (stereo not shown) [test1030] | -5.5
CCOP(=S)(OCC)SCSP(=S)(OCC)OCC [test1031] | -6.1
CCOC(=O)CC(SP(=S)(OC)OC)C(=O)OCC (stereo not shown) [test1036] | -8.2
CNC(=O)ON=C(C)SC [test1037] | -10.7
COC(=O)c1ccccc1S(=O)(=O)NC(=O)Nc1nc(C)nc(OC)n1 [test1039] | -15.5
CCCN(CCC)c1c([N+](=O)[O-])cc(S(C)(=O)=O)cc1[N+](=O)[O-] [test1040] | -8
CCOP(=S)(OCC)Oc1ccc([N+](=O)[O-])cc1 [test1043] | -6.7
CCCCN(CC)C(=O)SCCC [test1044] | -3.6
CCOP(=S)(OCC)SCSCC [test1045] | -4.4
CCC(=O)Nc1ccc(Cl)c(Cl)c1 [test1048] | -7.8
Nc1cnn(-c2ccccc2)c(=O)c1Cl [test1049] | -16.4
CCNc1nc(Cl)nc(NCC)n1 [test1050] | -10.2
COC(=O)c1ccccc1S(=O)(=O)NC(=O)Nc1nc(C)cc(C)n1 [test1051] | -20.3

SMILES | Exp. ΔGsolv [kcal/mol]
Cc1[nH]c(=O)n(C(C)(C)C)c(=O)c1Cl [test1052] | -11.1
COC(=O)c1sccc1S(=O)(=O)NC(=O)Nc1nc(C)nc(OC)n1 [test1054] | -16.2
COP(=O)(OC)C(O)C(Cl)(Cl)Cl (stereo not shown) [test1055] | -12.7
CCCSC(=O)N(CCC)CCC [test1057] | -4.1
Nc1ccc(Nc2ccccc2)c2c1C(=O)c1ccccc1C2=O [test1059] | -7.4
Nc1ccc(N)c2c1C(=O)c1c(N)ccc(N)c1C2=O [test1060] | -8.9
Nc1cccc2c1C(=O)c1ccccc1C2=O [test1061] | -8
CC(=O)Oc1ccccc1C(=O)O [test2001] | -9.94
CCCCOC(=O)c1ccc(O)cc1 [test2003] | -8.72
Cn1c(=O)c2c(ncn2C)n(C)c1=O [test2004] | -12.64
O=c1cc(Cl)[nH]c(=O)[nH]1 [test2006] | -15.83
O=c1[nH]c(=O)[nH]c(=O)[nH]1 [test2007] | -18.06
O=C(O)c1cc(-c2ccc(F)cc2F)ccc1O [test2010] | -9.4
CCOC(=O)c1ccc(O)cc1 [test2011] | -9.2
CC(C(=O)O)c1ccc(-c2ccccc2)c(F)c1 (stereo not shown) [test2013] | -8.42
Clc1c(Cl)c(Cl)c(Cl)c(Cl)c1Cl [test2015] | -2.33
CC(C)Cc1ccc(C(C)C(=O)O)cc1 (stereo not shown) [test2017] | -7
COC(=O)c1ccc(O)cc1 [test2020] | -9.51
COc1ccc2cc([C@H](C)C(=O)O)ccc2c1 [test2021] | -10.21
FC1(F)C(F)(F)C(F)(F)C1(F)F [test2023] | 3.43

Same assay, conditions: experimental solvation free energy; test set with 372 neutral compounds

SMILES | Exp. ΔGsolv [kcal/mol]
FC(F)(F)c1cccc(C(F)(F)F)c1 [test0004] | 1.07
c1c[nH]cn1 [test0017] | -9.81
CCCCO[N+](=O)[O-] [test1003] | -2.1
CCC(C)O[N+](=O)[O-] (stereo not shown) [test1004] | -1.8
CC(C)CO[N+](=O)[O-] [test1005] | -1.9
CCNc1nc(NC(C)C)nc(SC)n1 [test1009] | -7.7
CCOP(=S)(OCC)SCSc1ccc(Cl)cc1 [test1017] | -6.5
ClC1=C(Cl)C2(Cl)C3C(Cl)C(Cl)CC3C1(Cl)C2(Cl)Cl (stereo not shown) [test1018] | -3.4
CCOP(=S)(OCC)Oc1nc(Cl)c(Cl)cc1Cl [test1022] | -5
CCC(C)c1cc([N+](=O)[O-])cc([N+](=O)[O-])c1O (stereo not shown) [test1028] | -6.2
ClC1=C(Cl)C2(Cl)C3C(Cl)C=CC3C1(Cl)C2(Cl)Cl (stereo not shown) [test1033] | -2.6
CC1=CC(=O)CC(C)(C)C1 [test1034] | -5.2
Cl[C@H]1[C@H](Cl)[C@@H](Cl)[C@@H](Cl)[C@H](Cl)[C@H]1Cl [test1035] | -5.4
CCCN(CC1CC1)c1c([N+](=O)[O-])cc(C(F)(F)F)cc1[N+](=O)[O-] [test1046] | -2.5
CSc1nc(NC(C)C)nc(NC(C)C)n1 [test1047] | -8.4
CCNc1nc(NC(C)(C)C)nc(SC)n1 [test1053] | -6.7
CCCN(CCC)c1c([N+](=O)[O-])cc(C(F)(F)F)cc1[N+](=O)[O-] [test1056] | -3.3
Nc1ccc(N=Nc2ccc([N+](=O)[O-])cc2)cc1 [test1058] | -11.2
Cc1nc(N(C)C)nc(OC(=O)N(C)C)c1C [test1063] | -9.4
Nc1ccc([N+](=O)[O-])cc1 [test2022] | -9.45

Same assay, conditions: neutral molecule

SMILES | ΔGsol experimental value [kcal/mol]
CCOOCC [ethylperoxide, reference compound] | -5.32
COO [methylperoxide, reference compound] | -5.28
